Results: patent publication US9029337B2, “Modulation of factor 7 expression” (Isis Pharmaceuticals, Inc., priority 2007, dated 2015)
Strand notation (5' to 3'): a small letter for the sugar, then the base; units joined by * are phosphorothioate-linked, units joined directly phosphodiester-linked; [ ] holds rarer units or linkages, { } end groups; capitals alone tell only the bases. e = 2'-O-(2-methoxyethyl) (MOE); [5mC] = 5-methylcytosine; d = 2'-deoxy (DNA)

Tests used:
human Factor 7 mRNA [1] = test: Antisense inhibition of human Factor 7 mRNA in HepB3 cells, 50 nM antisense oligonucleotide, lipofectin; type: cell-based; conditions: lipofectin, approximately 24 hours
Method in brief: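 4,000 cells/well; ~24 h exposure; RNA isolated; probe set RTS 2927; normalised to RIBOGREEN® total RNA; % inhibition vs untreated.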

human Factor 7 mRNA [2] = test: Dose-dependent antisense inhibition of human Factor 7 in HepB3 cells, electroporation; type: cell-based
Method in brief: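 HepB3 cells, 20,000/well, electroporated with gapmers at 3.125–100 μM; about 16 h treatment. Factor 7 mRNA by qRT-PCR with primer probe set RTS 2927, normalized to RIBOGREEN total RNA; percent inhibition versus untreated cells.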

[3] = Table 1, 50 nM, relative to untreated control cells
[4] = 50 nM antisense oligonucleotide, Factor 7 mRNA by real-time RT-PCR (RTS 2927), relative to untreated control
[5] = 3.125 μM, approx. 16 hours (Table 15, Example 7)
[6] = 3.125 μM, approx. 16 hours (Table 16, Example 8 confirmation)
[7] = 6.25 μM, approx. 16 hours (Table 15, Example 7)
[8] = 6.25 μM, approx. 16 hours (Table 16, Example 8 confirmation)
[9] = 12.5 μM, approx. 16 hours (Table 15, Example 7)
[10] = 12.5 μM, approx. 16 hours (Table 16, Example 8 confirmation)
[11] = 25 μM, approx. 16 hours (Table 15, Example 7)
[12] = 25 μM, approx. 16 hours (Table 16, Example 8 confirmation)
[13] = 50 μM, approx. 16 hours (Table 15, Example 7)
[14] = 50 μM, approx. 16 hours (Table 16, Example 8 confirmation)
[15] = 100 μM, approx. 16 hours (Table 15, Example 7)
[16] = 100 μM, approx. 16 hours (Table 16, Example 8 confirmation)

407939 (antisense eT*eG*e[5mC]*eA*eG*d[5mC]*d[5mC]*d[5mC]*dG*dG*d[5mC]*dA*d[5mC]*d[5mC]*d[5mC]*eA*eG*e[5mC]*eG*eA) [compound 407939]
% Inhibition (human Factor 7 mRNA [1]; [3]): 93% | % Inhibition (human Factor 7 mRNA [1]; [4]): 76% | percent inhibition of Factor 7 mRNA, relative to untreated control cells (human Factor 7 mRNA [2]; [5]): 18% | percent inhibition of Factor 7 mRNA, relative to untreated control cells (human Factor 7 mRNA [2]; [6]): 35% | percent inhibition of Factor 7 mRNA, relative to untreated control cells (human Factor 7 mRNA [2]; [7]): 28% | percent inhibition of Factor 7 mRNA, relative to untreated control cells (human Factor 7 mRNA [2]; [8]): 60% | percent inhibition of Factor 7 mRNA, relative to untreated control cells (human Factor 7 mRNA [2]; [9]): 42% | percent inhibition of Factor 7 mRNA, relative to untreated control cells (human Factor 7 mRNA [2]; [10]): 60% | percent inhibition of Factor 7 mRNA, relative to untreated control cells (human Factor 7 mRNA [2]; [11]): 56% | percent inhibition of Factor 7 mRNA, relative to untreated control cells (human Factor 7 mRNA [2]; [12]): 73% | percent inhibition of Factor 7 mRNA, relative to untreated control cells (human Factor 7 mRNA [2]; [13]): 68% | percent inhibition of Factor 7 mRNA, relative to untreated control cells (human Factor 7 mRNA [2]; [14]): 81% | percent inhibition of Factor 7 mRNA, relative to untreated control cells (human Factor 7 mRNA [2]; [15]): 82% | percent inhibition of Factor 7 mRNA, relative to untreated control cells (human Factor 7 mRNA [2]; [16]): 83%

407935 (antisense eA*eT*eG*e[5mC]*eA*dT*dG*dG*dT*dG*dA*dT*dG*d[5mC]*dT*eT*e[5mC]*eT*eG*eA) [compound 407935]
% Inhibition (human Factor 7 mRNA [1]; [3]): 94% | % Inhibition (human Factor 7 mRNA [1]; Table 13 (microwalk), 50 nM): 79% | % Inhibition (human Factor 7 mRNA [1]; [4]): 72% | percent inhibition of Factor 7 mRNA, relative to untreated control cells (human Factor 7 mRNA [2]; [5]): 37% | percent inhibition of Factor 7 mRNA, relative to untreated control cells (human Factor 7 mRNA [2]; [6]): 63% | percent inhibition of Factor 7 mRNA, relative to untreated control cells (human Factor 7 mRNA [2]; [7]): 47% | percent inhibition of Factor 7 mRNA, relative to untreated control cells (human Factor 7 mRNA [2]; [8]): 79% | percent inhibition of Factor 7 mRNA, relative to untreated control cells (human Factor 7 mRNA [2]; [9]): 67% | percent inhibition of Factor 7 mRNA, relative to untreated control cells (human Factor 7 mRNA [2]; [10]): 84% | percent inhibition of Factor 7 mRNA, relative to untreated control cells (human Factor 7 mRNA [2]; [11]): 73% | percent inhibition of Factor 7 mRNA, relative to untreated control cells (human Factor 7 mRNA [2]; [12]): 90% | percent inhibition of Factor 7 mRNA, relative to untreated control cells (human Factor 7 mRNA [2]; [13]): 80% | percent inhibition of Factor 7 mRNA, relative to untreated control cells (human Factor 7 mRNA [2]; [14]): 90% | percent inhibition of Factor 7 mRNA, relative to untreated control cells (human Factor 7 mRNA [2]; [15]): 87% | percent inhibition of Factor 7 mRNA, relative to untreated control cells (human Factor 7 mRNA [2]; [16]): 91%
